Activity calls are given as the source filed them.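 Rule for the calls: active = maximal inhibition of the USP30 enzyme reaching 30% or more across the dose series; inactive = the rest.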
Biological target: Ubiquitin carboxyl-terminal hydrolase 30 (Homo sapiens) (UniProt Q70CQ3)
Assay: inhibitors of ubiquitin-specific protease 30 deubiquitylating enzyme, concentration dependence, in vitro biochemical, validation of primary hits (AID 1645865)
Conditions: purified USP30, Ub-rhodamine cleavage, fluorescence, 2 h

Sequence of Ubiquitin carboxyl-terminal hydrolase 30 (Homo sapiens) (Q70CQ3 whole entry, looked up): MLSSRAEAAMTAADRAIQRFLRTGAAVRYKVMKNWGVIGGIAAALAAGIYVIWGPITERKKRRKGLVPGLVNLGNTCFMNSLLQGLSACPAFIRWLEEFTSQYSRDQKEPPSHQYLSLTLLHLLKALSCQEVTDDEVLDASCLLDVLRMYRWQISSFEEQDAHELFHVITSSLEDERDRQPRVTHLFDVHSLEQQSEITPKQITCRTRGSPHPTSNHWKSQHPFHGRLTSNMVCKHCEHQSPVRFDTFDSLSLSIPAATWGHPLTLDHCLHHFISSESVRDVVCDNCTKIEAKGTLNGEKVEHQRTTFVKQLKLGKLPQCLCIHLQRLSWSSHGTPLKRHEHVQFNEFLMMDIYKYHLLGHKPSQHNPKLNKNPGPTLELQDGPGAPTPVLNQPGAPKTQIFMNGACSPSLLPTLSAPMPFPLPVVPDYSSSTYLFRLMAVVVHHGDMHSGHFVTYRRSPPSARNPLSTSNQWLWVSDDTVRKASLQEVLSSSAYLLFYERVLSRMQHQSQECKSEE

| IC50 | SMILES |
| --- | --- |
| > 50 µM (inactive) | COc1ccc(NC(=O)c2nnn(-c3cccc(C)c3)c2C)cc1 |
| < 0.05 µM | CCc1nc(SCC(=O)Nc2ccccc2Cl)c2oc3ccccc3c2n1 |
| > 50 µM (inactive) | Cc1ccc(-c2nc(N3CCCC(O)C3)ncc2-c2cnccn2)s1 (stereo unspecified) |
| 16.6 µM | C=C1CCC2[C@](C)(CCC[C@]2(C)C(=O)OC)[C@H]1CCc1ccoc1C[N+](C)(C)Cc1ccccc1 (stereo partly specified) |
| > 50 µM (inactive) | Cc1cccc(N2CCN(C(=O)c3nnn(-c4ccc(F)cc4)n3)CC2)c1 |
| 2.32 µM | CSc1ccccc1NC(=O)c1ccc(-n2cccn2)nn1 |
| > 50 µM (inactive) | Cc1ccc(NC(=O)c2cc(=O)n(C)c3c2c(=O)n(C)c(=O)n3C)c(C)c1 |
| > 50 µM (inactive) | CC1OC2CC(O)C1(O)C1=C2C(O)=C(C(N)=O)C(=N)C1=O (stereo unspecified) |
| > 5 µM (inactive) | CN(C)CCc1cc2c(c3c1ccc1ccccc13)OCO2 |
| > 50 µM (inactive) | Fc1ccccc1N1CCN(c2ncc3c(n2)CCN(Cc2ccccn2)C3)CC1 |
| 11.2 µM | Cc1cc(=O)n(CC(=O)Nc2ccccc2C)c(Nc2ccc(F)cc2)n1 |
| 0.853 µM | COC(=O)c1ccc(C(=O)Nc2cc3ccccc3cc2NC(=O)c2ccc(C(=O)OC)cc2)cc1 |
| > 50 µM (inactive) | CC(C)(C)C(=O)Nc1ccc(SCc2nnc(-c3ccccc3)o2)cc1 |
| > 50 µM (inactive) | N#Cc1ccccc1Cn1c(=O)n(Cc2ccco2)c(=O)c2ccccc21 |
| > 50 µM (inactive) | O=C(COc1nsnc1N1CCOCC1)Nc1ccc(F)c(F)c1 |
| 17.6 µM | COc1ccc(N(CC(=O)Nc2cccc(F)c2)S(=O)(=O)c2ccc(OC)c(OC)c2)cc1 |
| > 50 µM (inactive) | CC(C)(C)n1ncc2c(=O)n(Cc3cccc([N+](=O)[O-])c3)cnc21 |
| > 50 µM (inactive) | COc1ccc2nc(Nc3ncc4c(n3)CCCC4=O)nc(C)c2c1 |
| > 50 µM (inactive) | CCN1C(=O)c2cccnc2Sc2cc(NC(=O)c3ccc(Cl)s3)ccc21 |
| > 50 µM (inactive) | Cc1sc2nc(CN3CCCC3)nc(NCCc3ccc(Cl)cc3)c2c1C |

| IC50 | SMILES |
| --- | --- |
| 41.5 µM | CCOc1ccc(N2C(=O)c3ccccc3C2C(=O)NCc2ccccc2OC)cc1 (stereo unspecified) |
| 26.5 µM | Cc1cc(C2CC(=O)Nc3c2c(C)nn3-c2nc3ccccc3[nH]2)c(C)s1 (stereo unspecified) |
| > 50 µM (inactive) | CCc1nc2c(NC(=O)Nc3cccc(C(=O)OC)c3)cccn2n1 |
| 18.5 µM | COc1ccc(/C=C/C(=O)Nc2c3c(nc4c2CCC4)CCCC3)cc1 |
| > 50 µM (inactive) | Oc1ccc(-c2nc3cnccn3c2NCCc2ccccc2)c(O)c1 |
| > 50 µM (inactive) | COc1cccc(-n2ccc(=O)c(-c3nc(-c4ccccc4Cl)no3)n2)c1 |
| > 50 µM (inactive) | N#C/C(=C/c1sc(N2CCOCC2)nc1-c1ccccc1)c1ccccn1 |
| > 50 µM (inactive) | CC(C)OC(=O)c1cc2c(ccn2-c2ccc(F)cc2)n1CC(=O)NC1CCCCC1 |
| 0.545 µM | Nc1c(C(=O)Nc2ccc3c(c2)OCO3)sc2nc(-c3cccnc3)ccc12 |
| 27.9 µM | COc1ccc(C2C(C(=O)Nc3ccccc3OC)=C(C)Nc3nnnn32)cc1Br (stereo unspecified) |
| 2.32 µM | COc1ccc(NC(=O)Cn2cc(C(=O)c3ccc(C)cc3)c(=O)c3ccccc32)cc1 |
| 4.82 µM | Cc1nc2nc(SCc3nc4ccccc4n3C)[nH]c2cc1Br |
| 13.2 µM | COc1ccc(Cl)c(NC(=O)C2CC(=O)Nc3cc(-c4ccccc4)nn32)c1 (stereo unspecified) |
| > 50 µM (inactive) | CCN1CCN(C(=O)CCCN(c2ccccc2)S(C)(=O)=O)CC1 |
| > 50 µM (inactive) | O=C(NCc1cccnc1)C1CCN(c2cnc(N3CCCCCC3)nc2)CC1 |
| 37.6 µM | CC(C)C(=O)Nc1ccc(N2CCN(Cc3ccc(F)cc3)C2=O)nc1 |
| 40.3 µM | O=C1N[C@@H](Cc2ccccc2)C(=O)N2[C@H]3Nc4ccccc4[C@@]3([C@]34C[C@H]5C(=O)N[C@@H](Cc6ccccc6)C(=O)N5[C@H]3Nc3ccccc34)C[C@@H]12 |
| > 50 µM (inactive) | COc1ccc(CCNC(=O)c2ccc3ccccc3c2)cc1OC |
| > 50 µM (inactive) | Cc1ccc2nc(CNc3ccc(F)cc3C)cc(=O)n2c1 |

The next lines start with the compound.

| SMILES | IC50 |
| --- | --- |
| c1ccc(-c2nc(-c3nnn(-c4ccccc4)c3-c3ccncc3)no2)cc1 | 2.29 µM |
| Cc1cc(C)nc(-n2nc(C)c3c2NC(=O)CSC3c2ccc(F)cc2F)n1 (stereo unspecified) | 31.3 µM |
| CSc1nc2ncc3c(=O)n(CCc4ccccc4)ccc3n2n1 | > 50 µM (inactive) |
| O=C(NCc1ccco1)c1ccc2c(c1)N(Cc1cccc(F)c1)C(=O)c1ccccc1S2 | > 50 µM (inactive) |
| NC(=O)CCC(=O)N[C@H]1C[C@H]2CN(Cc3ccccc3)c3ccccc3CN2C1 | > 50 µM (inactive) |
| Cc1ccc(CNC(=O)CCCn2c(=O)c3sccc3n(CC(=O)Nc3cc(Cl)ccc3C)c2=O)cc1 | 2.13 µM |
| O=c1c(-c2nc(C3CC3)no2)cccn1Cc1c(F)cccc1Cl | > 50 µM (inactive) |
| COc1ccc(CCNC(=O)CCn2c(=O)c3ccccc3n(Cc3ccc(C)cc3)c2=O)cc1OC | 25.4 µM |
| CNC(=O)c1cc2c(=O)n3cccc(C)c3nc2n1Cc1ccccc1 | 2.29 µM |
| COc1ccc(NC(=O)c2cc(-c3cccnc3)n[nH]2)cc1Cl | 1.16 µM |
| COc1ccc(NC(=O)C2CCN(c3cncnc3N(C)C)CC2)cc1OC | > 50 µM (inactive) |
| COc1ccc(NC(=O)CN2C(=O)c3ccccc3Sc3ccc(C(=O)N4CCCC4)cc32)c(OC)c1 | > 50 µM (inactive) |
| COc1cccc2c1NC(=O)C21CCN(C(=O)Nc2cccc3ccccc23)CC1 | > 50 µM (inactive) |
| Cc1cc(C)nc(-n2nc(C)c3c2NC(=O)CSC3c2ccccc2F)n1 (stereo unspecified) | 29.5 µM |
| Cc1ccc(C)c(Cn2nnc3c(=O)[nH]c(C4CCN(S(=O)(=O)c5ccc(S(=O)(=O)NC6CC6)cc5)CC4)nc32)c1 | 30.4 µM |
| Cc1ccc(C(=O)c2cn(CC(=O)Nc3ccccc3)c3ccc(C)cc3c2=O)cc1 | 4.45 µM |

| SMILES | IC50 |
| --- | --- |
| CC(=O)CN1CC2(CCN(Cc3ccc(F)cc3)CC2)COc2ccccc2S1(=O)=O | > 50 µM (inactive) |
| CC(C)=CCC/C(C)=C/Cc1c(O)cc2c(c1O)C(=O)OC2 | 1.24 µM |
| Cn1cc(-c2cnc(-c3cccc(F)c3)nc2)cc1C(=O)NCc1cccnc1 | 30.7 µM |
| O=C(NCc1ccc(-c2nc3cnccc3o2)cc1)c1ccccc1F | 17.5 µM |
| Cc1ccc(-c2ccc(N3CCOCC3)nn2)cc1S(=O)(=O)N1CCOCC1 | > 50 µM (inactive) |
| O=C(Nc1ccc2c(c1)OCCO2)Nc1nnc(CC(=O)N2CCCCC2)s1 | > 50 µM (inactive) |
| CCCc1cc(=O)oc2cc(OCC(=O)NCc3ccc(OC)cc3)ccc12 | 12.3 µM |
| O=c1c2cnc(N3CCOCC3)nc2ccn1CCc1ccccc1 | 16.7 µM |
| Cc1nc(NCc2ccccn2)c2cc(-c3ccccc3)sc2n1 | 25.6 µM |
| O=C(CSc1nc2ccncc2[nH]1)Nc1ccc(Br)cc1F | 27.4 µM |
| CC(C)(C)C(=O)C1C2C(=O)N(c3ccc4c(c3)OCO4)C(=O)C2C2c3ccccc3C=CN12 (stereo unspecified) | > 50 µM (inactive) |
| COc1cccc(-c2nc(C(N)=O)c3[nH]c(=O)n(-c4cccc(Cl)c4)c3n2)c1OC | > 50 µM (inactive) |
| Cc1nnc(NCc2cccnc2)c2c1nnn2Cc1ccccc1Cl | 28.3 µM |
| COc1ccc2c(c1)CCc1c(C(=O)NCc3cccnc3)noc1-2 | 19.4 µM |
| CC1=C(c2ccc(F)cc2)S(=O)(=O)NC1=NCC(=O)Nc1ccc(F)cc1 | 21 µM |
| Cc1cc(=O)n(CC(=O)NCc2ccccc2F)c2c1c(C)nn2-c1ccccc1 | 32.7 µM |
